The conditions of the series: in vivo, iv, 20 mg/kg. The procedure:
Where F is the absolute bioavailability, AUCLUNG and DLUNG are the area under the curve and dose, respectively, for drug administration through the lung. AUCIV and DIV are areas under the curve and dose, respectively, of drug administered intravenously. From internal PK Studies performed, it is known that F equals 0.54 for capreomycin particles administered through the lungs, AUCIV equals 48.47 μgh/ml, and DIV equals 20 mg/kg.

In the case of capreomycin, the AUCIV is on record as 48.47 μgh/ml.

The record behind these values is patent publication US8205612B2, “Dry powder aerosol generator” (The University of North Carolina at Chapel Hill, NC, priority 2007, dated 2012).
